According to patent US7534806B2, “Method for treating neuropathic pain and associated syndromes” (Avigen, Inc., priority 2004, dated 2009):
Entries after “also recorded” stand apart in the source; their conditions may differ.

Key:
[1] = Dose selection study: rat tolerability to intraperitoneal ibudilast; format: in vivo
Text: Dose Selection Study: Preliminary studies were designed to assess rat tolerability to single and multiple intraperitoneal administrations of ibudilast. […] These included extended head, increased respiratory rate, occasional circling behavior and vocalization, and lethargy.

[2] = test system: mechanical allodynia in rat model of taxol-induced neuropathic pain; assay: von Frey test of mechanical allodynia in rat model of taxol-induced neuropathic pain; format: in vivo
Protocol: Test Agents: Ibudilast was formulated as described above. Ibudilast was administered at 7.5 mg/kg (2.7 ml/kg of 2.8 mg/ml in 35% PEG/saline i.p. each morning (typically 8 am) and pm (typically 3 pm). Animals: Pathogen-free adult male Sprague-Dawley rats (280-350 g; Harlan Labs) were used in all experiments. Rats were housed in temperature (23+/−3° C.) and light (12:12 light: dark; lights on at 0700 hr) controlled rooms with standard rodent chow and water available ad libitum. Behavioral testing was performed during the light cycle. Taxol Model: Neuropathic pain was induced by administration of 4 i.p. injections on alternate days (Day 0, 2, 4, and 6) of 1 mg/kg taxol (Paclitaxel®, cumulative dose 4 mg/kg). Neuropathic pain onset was maximal around day 19 post taxol administration (Day 0). Ibudilast or vehicle control treatment initiated at either day 19 (treatment paradigm) or day 12 (prevention paradigm). Allodynia results were determined prior to the morning administration of vehicle or ibudilast. Behavioral Measures von Frey Test: The von Frey test was performed within the sciatic or saphenous innervation area of the hindpaws as previously described above for the CCI model. All testing was conducted in the am prior to the morning dose of ibudilast for that day. Multi-day Study for Neuropathic Pain Efficacy: 7.5 mg/kg Ibudilast was administered twice daily for 7 days starting day 20 after the first taxol dose (Day 0). Mechanical allodynia was assessed prior to the first dose of ibudilast each day. Prevention of Taxol-Induced Neuropathy: A second study was performed identical in nature to the multi-day study described above except that ibudilast or vehicle control administrations were initiated on day 12 just as allodynia was becoming clearly evident.

in vivo = settings: rat
Protocol: Pharmacokinetics. Plasma Ibudilast Concentrations Correlating with Efficacy: Dedicated pharmacokinetic studies in normal rats were performed with ibudilast dosing i.p. or p.o. in order to correlate drug plasma levels with changes in mechanical allodynia (i.e. neuropathic pain efficacy). Following dosing (time t=0), serial bleeding from n=3 rats/time point and 6 time points interspersed between 5 min and 6 hr was obtained, plasma was isolated, and ibudilast concentrations were determined by a HPLC and two-dimensional mass spectrometry (LC/MS/MS) method (described in Example 4) sensitive to ≦1 ng/ml. […] Moreover, pharmacokinetic-pharmacodynamic analyses involving PK parameters including Cmax, area under the curve (AUC), and elimination half-life (t1/2) indicated Cmax is an important parameter in establishing efficacy.
(§1) Tissue Concentration Analysis: A solution of ibudilast (Haorui) at 0.5 mg/ml in DMSO was used as the working stock. A solution of ibudilast at 0.5 mg/ml in DMSO was prepared using the powdered ibudilast provided with the study samples and used as the working stock. Calibration standards in plasma were prepared by diluting each 0.5 mg/ml stock 1 in 100 into rat plasma to 5000 ng/ml (5 μl+495 μl), then diluting further, to 2.29 ng/ml, by 3-fold serial dilution with plasma. Standards 3, 5 and 7 were used as low, mid and high QC samples, respectively.
(§2) Calibration standards, QC and plasma study samples were prepared for HPLC injection by precipitating 25 μl of plasma with 3× volumes (75 μl) of ice cold acetonitrile containing 50 ng/ml diphenhydramine and 100 ng/ml dextromethorphan as the internal standards. Tissue study samples were prepared for HPLC injection by adding 1 μl of water per mg of tissue plus 3× volumes (relative to water) of ice cold acetonitrile containing 50 ng/ml diphenhydramine and 100 ng/ml dextromethorphan as the internal standards, then homogenized with an electric homogenizer. Following centrifugation at 6100 g for 30 minutes, 40 μl of each supernatant was diluted with 200 μl of 0.2% formic acid in water and analyzed by the following LC/MS/MS conditions: • HPLC: Shimadzu VP System • Mobile Phase: 0.2% formic acid in water (A) and in methanol (B) • Column: 2×10 mm Peeke Scientific DuraGel G C18 guard cartridge • Injection Volume: 100 μl • Gradient: 5-95% B in 2 minutes after a 0.75 minute wash • Flow Rate: 400 μl/min • Mass Spectrometer: Applied Biosystems/MDS SCIEX API 3000 • Interface: TurboIonSpray (ESI) at 400° C. • Ionization Mode: Positive Ion • Q1/Q3 Ions: 231.2/161.2 for ibudilast Studies and Results

activated microglia = settings: dose-dependent; Mizuno et al. 2004; cited from earlier work
[3] = test system: mechanical allodynia in rat Chung model; assay: von Frey test of mechanical allodynia in rat Chung model of neuropathic pain; format: in vivo
Protocol: Test Agents: Haorui and Sigma ibudilast was formulated as described above. Ibudilast was administered at 10 mg/kg twice daily, (3.7 ml/kg of 2.7 mg/ml in 35% PEG/saline) i.p. each morning (typically 8 am) and pm (typically 3 pm). Animals: Pathogen-free adult male Wistar rats (150-200 g; Elevage Janvier) were used in all experiments. Rats were housed in temperature (23+/−3° C.) and light (12:12 light: dark; lights on at 0700 hr) controlled rooms with standard rodent chow and water available ad libitum. Behavioral testing was performed during the light cycle. Chung model: Rats were anesthetized under isoflurane (4-5% induction and 2-3% maintenance in 100% oxygen) and an incision at the L4-S2 levels was performed to expose the left L5 and L6 spinal nerves. A ligature was tied tightly around each nerve. The wound was then sutured. The rats received an injection of clamoxil and were allowed to recover. Sham controls were subjected to the same surgical procedure except that the nerves were not ligated. […] Multi-day Study for Neuropathic Pain Efficacy: A 3-day efficacy study was undertaken wherein the animals (n=3-4/group for shams and 5/group for Chung animals) were administered 10 mg/kg ibudilast or 35% PEG/saline vehicle twice daily and mechanical allodynia was monitored at various time intervals post-dosing. […] A pre-dose reading was acquired each day in order to assess durability of efficacy.

[4] = Rat ibudilast plasma PK and tissue distribution (plasma, muscle, brain, spinal cord); format: in vivo
Protocol: Test Agents: Ibudilast was prepared in 15% ethanol/saline. Drug stability and concentration were validated by HPLC/MS/MS.
Animals: Pathogen-free adult male Sprague-Dawley rats (280-350 g; Harlan Labs) were used in all experiments. Rats were housed in temperature (23+/−3° C.) and light (12:12 light: dark; lights on at 0700 hr) controlled rooms with standard rodent chow and water available ad libitum. Behavioral testing was performed during the light cycle.
PK Analysis: Rats (n=3/group) were administered 5 mg/kg ibudilast, i.p. and plasma, muscle, brain, and spinal cord were harvested at 5, 15, 60, 180, and 420 min post administration.
as §1
as §2, with “Tissue study samples were prepared for HPLC injection by adding 1 μl of water per mg of tissue plus 3× volumes (relative to water) of ice cold acetonitrile containing 50 ng/ml diphenhydramine and 100 ng/ml dextromethorphan as the internal standards, then homogenized with an electric homogenizer.” left out

[5] = test system: mechanical allodynia in rat chronic constriction injury (CCI) model; assay: von Frey test of mechanical allodynia in rat chronic constriction injury (CCI) model of neuropathic pain; format: in vivo
[6] = administered systemically; Sugiyama et al. 1993; cited from earlier work
[7] = test system: astrocyte activation (Glial Fibrillary Acidic Protein staining); assay: GFAP immunohistochemistry of lumbar spinal cord from CCI rats (astrocyte activation); format: in vivo, rat; settings: 7.5 mg/kg ip BID for 5 days
Text: Study of Attenuation of Glial Cell Activation in Ibudilast-Treated CCI Rats: At the end of the 5-day study, animals (4/group) from the CCI vehicle control or CCI ibudilast group were euthanized and lumbar spinal cord tissue was isolated and stained for astrocyte activation with an antibody reactive against Glial Fibrillary Acidic Protein (GFAP) as described in […] and J A DeLeo, Brain Research (2002) 956:294-301. FIG. 6 depicts a typical staining profile from CCI vehicle-treated animals. Enlarged (activated) astrocytes, typically observed in subjects with neuropathic pain (CCI rats in this case), are visible in the CCI group.

[8] = humans, cited from earlier work

CC(C)C(=O)c1c(C(C)C)nn2ccccc12 [Ibudilast, 3-isobutyryl-2-isopropylpyrazolo[1,5-a]pyridine]
duration of adverse behavioral effects ([1]; i.p. doses >20 mg/kg in 35% PEG/saline): up to 1 hr | adverse behavioral effects ([1]; i.p. doses >20 mg/kg in 35% PEG/saline, volume </=5 ml/kg): produced adverse behavioral effects | tolerability ([1]; rat, in vivo, ip, 15 mg/kg): generally well tolerated | prevention of taxol-induced neuropathy development ([2]; 7.5 mg/kg i.p. BID initiated on day 12): prevented the further neuropathy development | time to return to allodynic state after discontinuation ([2]; 7.5 mg/kg i.p. twice daily): ≤ 1 days | magnitude of allodynia, treatment of established taxol neuropathy ([2]; 7.5 mg/kg i.p. twice daily for 7 days, measured prior to morning dose): attenuated the magnitude of allodynia; also recorded: statistically significantly different from vehicle control | Cmax (in vivo): ≥ 125 ng/mL | Cmax (in vivo; ip, 2.5 mg/kg): 125 ng/mL | Cmax (in vivo; ip, 7.5 mg/kg): 1710 ng/mL | Cmax (in vivo; po, 21 mg/kg): 325 ng/mL | Cmax (in vivo; po, 50 mg/kg): 387 ng/mL | production of IL-10, NGF, GDNF and NT-4 (activated microglia): enhance | production of nitric oxide (NO), reactive oxygen species, IL-1β, IL-6 and TNF (activated microglia): suppress | time after treatment at which reversal of neuropathic pain was still evident (pre-dose reading) ([3]; 10 mg/kg i.p. b.i.d., within two days of regimen): 16 h | magnitude of allodynia (50% withdrawal threshold) ([3]; 10 mg/kg i.p. twice daily, 3 days): attenuated the magnitude of allodynia | tissue distribution ([4]; 5 mg/kg i.p.): well distributed to peripheral (e.g. muscle) and central (e.g. brain and spinal cord) tissues | half-life ([4]; male, Sprague-Dawley, rat, ip, 5 mg/kg i.p., plasma, muscle, brain, spinal cord, read-out: elimination half-life in all tissue compartments): 1.67 to 2.32 h | Cmax ([4]; male, Sprague-Dawley, rat, plasma and CNS tissues (brain, spinal cord), ip, ~5 mg/kg i.p., 15% ethanol/saline, read-out: maximal concentration (Cmax) in plasma and CNS tissues): ~1000 ng/mL | days of treatment after which attenuation became durable (pm dosing to next day's pre-am test) ([5]; 21 mg/kg p.o. twice daily): 2 days | earliest time of attenuation of allodynia after the first dose ([5]; 21 mg/kg p.o. twice daily): 4 h | attenuation of allodynia, oral twice daily ([5]; 21 mg/kg p.o. twice daily 2 days then 25.5 mg/kg 3 days, 35% PEG/saline): Attenuation of allodynia was observed | days of dosing to durable efficacy lasting overnight ([5]; 50 mg/kg oral gavage once daily): ≤ 7 days | magnitude of allodynia, oral once daily ([5]; 50 mg/kg oral gavage once daily, 10% HCO-60, 10% PEG400 in saline, following 2 days of dosing, shortly after morning dose): significantly attenuated the magnitude of allodynia | magnitude of allodynia (50% withdrawal threshold), multi-day study ([5]; 2.5, 7.5 or 10 mg/kg i.p. twice daily, 1 week, significant at +2 hr post-administration): attenuated the magnitude of allodynia | time after treatment at which reversal of neuropathic pain was still evident ([5]; doses >2.5 mg/kg i.p. bid, within two days of regimen): 16 h | paw withdrawal thresholds in ibudilast sham animals ([5]; sham-operated rats, single i.p. 10-15 mg/kg): no changes in paw withdrawal thresholds | time at which reduction in allodynia was apparent ([5]; single i.p. 10-15 mg/kg): 1 h | time of maximum reduction in allodynia ([5]; single i.p. 10-15 mg/kg): 2 h | time of return to baseline ([5]; single i.p. 10-15 mg/kg): 16 h | acute reduction in allodynia relative to CCI vehicle animals ([5]; single i.p. administration of 10-15 mg/kg, measured 1, 2, 4, 16 hr post-administration): showed a reduction in allodynia | blood-brain barrier crossing [6]: crosses the blood-brain barrier | glial cell activation as measured by GFAP staining [7]: Reduced glial cell activation | multi-dose steady state Cmax ([8]; 10 mg BID or TID, Cai-Li et al. 2003): 45 ng/mL | single dose Cmax ([8]; 10 mg, Ketas Package Insert): 25 ng/mL

CN1CC[C@]23c4c5ccc(O)c4O[C@H]2[C@@H](O)C=C[C@H]3[C@H]1C5 [morphine]
reversal of allodynia in comparison to vehicle control, combination study ([5]; 7.5 mg/kg ibudilast ip bid alone or with 1 mg/kg morphine s.c., several days): greater than that by ibudilast
